# Results taken from ChEMBL document CHEMBL1201862, “PubChem BioAssay data set” (2004).
# Calls of active or inactive are those of the source.
# How the values were obtained:
# Cytochrome P450 2C19 = Cytochrome P450 2C19 (Homo sapiens, UniProt P33261); assay: Cytochrome panel assay with activity outcomes. Panel member name: p450-cyp2c19 Compounds with AC50 equal or less than 10 uM are considered active; type: functional
# Cytochrome P450 2C9 = Cytochrome P450 2C9 (Homo sapiens, UniProt P11712)
# [1] = molecular target: T1, Rac GTPase-activating protein 1 (Homo sapiens, UniProt Q9H0H5); assay: blockers of MgcRacGAP-driven Rac1 GTP hydrolysis – biochemical, ADP Hunter fluorescence, primary and confirmatory, confirmation (AID 624330); type: functional
# T1 sequence (Q9H0H5 whole entry): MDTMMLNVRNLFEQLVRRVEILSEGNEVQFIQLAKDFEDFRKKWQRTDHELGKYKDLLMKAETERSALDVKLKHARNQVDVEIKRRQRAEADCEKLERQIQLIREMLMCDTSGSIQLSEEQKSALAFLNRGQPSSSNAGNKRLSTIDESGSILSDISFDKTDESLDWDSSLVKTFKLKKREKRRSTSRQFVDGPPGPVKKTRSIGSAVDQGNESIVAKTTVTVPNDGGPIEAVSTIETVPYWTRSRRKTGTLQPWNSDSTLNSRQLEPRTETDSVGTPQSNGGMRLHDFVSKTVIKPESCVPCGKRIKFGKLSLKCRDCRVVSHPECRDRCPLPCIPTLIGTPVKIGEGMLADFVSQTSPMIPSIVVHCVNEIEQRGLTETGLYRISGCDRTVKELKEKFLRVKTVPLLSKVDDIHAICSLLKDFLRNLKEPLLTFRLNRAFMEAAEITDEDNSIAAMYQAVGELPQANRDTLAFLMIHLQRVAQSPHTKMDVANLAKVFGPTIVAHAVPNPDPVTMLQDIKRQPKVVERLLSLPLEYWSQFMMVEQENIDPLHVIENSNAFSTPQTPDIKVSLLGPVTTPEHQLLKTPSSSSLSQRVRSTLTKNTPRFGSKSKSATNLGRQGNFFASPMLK
# [2] = viability of uninfected HEp-2 cells – cell-based, HTS, cytotoxicity control for RSV inhibitor project, dose response (AID 2410); type: functional; details: human respiratory syncytial virus
# Cytochrome P450 3A4 = Cytochrome P450 3A4 (Homo sapiens, UniProt P08684);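 note: CYP3A4 tested as one member of a cytochrome P450 panel screen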
# Chain of Cytochrome P450 3A4 (P08684 whole entry): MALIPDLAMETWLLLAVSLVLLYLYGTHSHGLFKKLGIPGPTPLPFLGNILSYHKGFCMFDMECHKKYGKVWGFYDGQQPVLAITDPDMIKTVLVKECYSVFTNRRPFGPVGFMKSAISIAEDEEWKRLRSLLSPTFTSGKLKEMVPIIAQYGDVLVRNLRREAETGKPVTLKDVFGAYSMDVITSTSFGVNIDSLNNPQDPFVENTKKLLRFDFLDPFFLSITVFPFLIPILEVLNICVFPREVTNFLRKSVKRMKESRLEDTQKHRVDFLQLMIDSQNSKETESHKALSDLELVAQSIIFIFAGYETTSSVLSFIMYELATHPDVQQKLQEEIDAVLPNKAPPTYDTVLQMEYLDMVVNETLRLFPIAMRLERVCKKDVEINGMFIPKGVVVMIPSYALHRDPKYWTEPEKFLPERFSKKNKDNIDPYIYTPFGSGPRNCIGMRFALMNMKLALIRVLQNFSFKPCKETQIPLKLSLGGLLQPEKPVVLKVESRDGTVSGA
# [3] = luciferase reporter signal suppression in cells – H4 neuroglioma cells, luminescence, dose response (AID 1990); type: functional, cell-based
# [4] = alpha-synuclein stem-loop luciferase translation blockers – H4 neuroglioma cells, luminescence, confirmation (AID 1988); type: functional, cell-based
# [5] = Luminescence Cell-Based Dose Response HTS to Identify Inhibitors of 5'UTR Stem-Loop Driven Prion Protein mRNA Translation in H4 Neuroglioblastoma Cells. [Related pubchem assays: 1827 (Project Summary), 1813 (Primary HTS)]; type: functional
# Cytochrome P450 1A2 = molecular target: T2, Cytochrome P450 1A2 (Homo sapiens, UniProt P05177);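 note: PubChem cytochrome P450 panel assay, CYP1A2 panel member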
# T2 sequence (P05177 whole entry): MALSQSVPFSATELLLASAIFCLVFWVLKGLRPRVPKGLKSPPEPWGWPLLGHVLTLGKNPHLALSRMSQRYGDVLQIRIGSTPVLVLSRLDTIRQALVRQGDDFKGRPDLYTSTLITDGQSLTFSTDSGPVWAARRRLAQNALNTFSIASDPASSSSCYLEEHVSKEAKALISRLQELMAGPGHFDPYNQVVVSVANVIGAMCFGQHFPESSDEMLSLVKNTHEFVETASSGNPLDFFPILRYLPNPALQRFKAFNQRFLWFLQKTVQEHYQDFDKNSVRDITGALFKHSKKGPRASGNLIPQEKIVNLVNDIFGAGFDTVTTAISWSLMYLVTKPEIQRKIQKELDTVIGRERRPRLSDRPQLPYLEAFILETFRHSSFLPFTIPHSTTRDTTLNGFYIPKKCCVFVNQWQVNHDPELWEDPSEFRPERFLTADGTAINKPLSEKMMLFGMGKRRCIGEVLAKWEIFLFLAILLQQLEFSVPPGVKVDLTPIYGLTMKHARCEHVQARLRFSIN
# INS1 = assay: INS-1E survival protection against cytokine death – cell-based, luminescence, retest, dose response (AID 449756); type: functional; details: Rattus norvegicus;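 note: cell death triggered by IL-1 beta plus TNF-alpha plus IFN-gamma mixture; protective hits raise ATP signal compared with cytokine alone wells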
# [6] = molecular target: T3, Corticotropin-releasing factor receptor 2/Corticotropin-releasing factor-binding protein (Homo sapiens, UniProt P24387+Q13324); assay: activators of CRF receptor 2 with binding protein – uHTS hits, confirmation (AID 602473); type: functional; details: read-out: EC50_Mean
# T3 sequence (Q13324 whole entry): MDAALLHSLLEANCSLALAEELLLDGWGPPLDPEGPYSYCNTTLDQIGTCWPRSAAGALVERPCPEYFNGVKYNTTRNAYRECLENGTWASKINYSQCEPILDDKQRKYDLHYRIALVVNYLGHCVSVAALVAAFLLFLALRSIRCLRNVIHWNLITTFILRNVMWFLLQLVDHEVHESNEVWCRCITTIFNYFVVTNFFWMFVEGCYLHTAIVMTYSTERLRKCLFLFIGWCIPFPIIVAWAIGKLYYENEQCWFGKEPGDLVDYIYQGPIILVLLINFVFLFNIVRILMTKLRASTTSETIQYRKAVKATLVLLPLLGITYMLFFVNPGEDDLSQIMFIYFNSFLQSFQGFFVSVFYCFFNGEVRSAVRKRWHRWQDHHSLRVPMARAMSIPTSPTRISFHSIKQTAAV
# T3 sequence (P24387 whole entry): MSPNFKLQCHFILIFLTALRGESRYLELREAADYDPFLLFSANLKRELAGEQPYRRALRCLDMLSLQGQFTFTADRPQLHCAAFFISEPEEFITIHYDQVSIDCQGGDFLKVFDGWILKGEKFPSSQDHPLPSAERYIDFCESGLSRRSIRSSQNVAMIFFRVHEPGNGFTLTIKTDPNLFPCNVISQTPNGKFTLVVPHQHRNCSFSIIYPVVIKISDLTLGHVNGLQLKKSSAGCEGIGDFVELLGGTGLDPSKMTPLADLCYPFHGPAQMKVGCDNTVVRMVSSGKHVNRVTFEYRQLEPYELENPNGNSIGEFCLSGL
# [7] = molecular target: T4, Heat shock factor protein 1 (Mus musculus, UniProt P38532); assay: enhancement of HSF1-driven luciferase signal – cell-based, NIH3T3, luminescence, dose retest, confirmation (AID 435004); type: functional;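 note: stress induced by proteasome inhibitor MG132 added 30 min after compound; luciferase reporter driven by HSF1 response element in NIH3T3 cells; actives raise luminescence as potentiators of the MG132 stress response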
# T4 sequence (P38532 whole entry): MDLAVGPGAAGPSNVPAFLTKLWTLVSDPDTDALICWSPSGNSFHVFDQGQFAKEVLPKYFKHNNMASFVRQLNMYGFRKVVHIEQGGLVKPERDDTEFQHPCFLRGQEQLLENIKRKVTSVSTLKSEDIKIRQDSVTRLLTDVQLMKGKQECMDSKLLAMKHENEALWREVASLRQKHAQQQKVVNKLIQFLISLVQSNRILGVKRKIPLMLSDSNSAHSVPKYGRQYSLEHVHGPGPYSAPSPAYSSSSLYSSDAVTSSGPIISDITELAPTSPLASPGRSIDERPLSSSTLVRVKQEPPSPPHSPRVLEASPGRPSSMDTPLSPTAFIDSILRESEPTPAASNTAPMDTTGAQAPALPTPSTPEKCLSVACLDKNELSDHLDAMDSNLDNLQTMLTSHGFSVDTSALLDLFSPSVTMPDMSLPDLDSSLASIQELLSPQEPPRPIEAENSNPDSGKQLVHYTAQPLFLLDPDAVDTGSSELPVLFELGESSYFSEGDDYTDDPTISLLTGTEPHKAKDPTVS
# H4 = assay: Luminescence Cell-Based Dose Response HTS to Identify Activators of 5'UTR Stem-Loop Driven Prion Protein mRNA Translation in H4 Neuroglioblastoma Cells. [Related pubchem assays: 1829 (Project Summary), 1814 (Primary HTS)]; type: functional; details: Homo sapiens
# Chain of Cytochrome P450 2C19 (P33261 whole entry): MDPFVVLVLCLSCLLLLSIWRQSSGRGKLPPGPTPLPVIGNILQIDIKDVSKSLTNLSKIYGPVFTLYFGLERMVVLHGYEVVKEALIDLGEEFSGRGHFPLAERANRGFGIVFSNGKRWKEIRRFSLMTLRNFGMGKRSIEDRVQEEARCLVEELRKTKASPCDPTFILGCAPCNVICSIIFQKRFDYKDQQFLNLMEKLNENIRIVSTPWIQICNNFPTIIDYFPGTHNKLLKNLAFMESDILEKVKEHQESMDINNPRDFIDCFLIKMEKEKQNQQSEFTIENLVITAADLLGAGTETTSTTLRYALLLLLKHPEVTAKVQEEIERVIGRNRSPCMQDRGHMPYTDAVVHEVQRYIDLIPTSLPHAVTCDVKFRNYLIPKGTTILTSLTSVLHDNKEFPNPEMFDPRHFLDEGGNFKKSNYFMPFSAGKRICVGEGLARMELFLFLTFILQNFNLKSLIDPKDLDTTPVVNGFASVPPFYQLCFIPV
# Chain of Cytochrome P450 2C9 (P11712 whole entry): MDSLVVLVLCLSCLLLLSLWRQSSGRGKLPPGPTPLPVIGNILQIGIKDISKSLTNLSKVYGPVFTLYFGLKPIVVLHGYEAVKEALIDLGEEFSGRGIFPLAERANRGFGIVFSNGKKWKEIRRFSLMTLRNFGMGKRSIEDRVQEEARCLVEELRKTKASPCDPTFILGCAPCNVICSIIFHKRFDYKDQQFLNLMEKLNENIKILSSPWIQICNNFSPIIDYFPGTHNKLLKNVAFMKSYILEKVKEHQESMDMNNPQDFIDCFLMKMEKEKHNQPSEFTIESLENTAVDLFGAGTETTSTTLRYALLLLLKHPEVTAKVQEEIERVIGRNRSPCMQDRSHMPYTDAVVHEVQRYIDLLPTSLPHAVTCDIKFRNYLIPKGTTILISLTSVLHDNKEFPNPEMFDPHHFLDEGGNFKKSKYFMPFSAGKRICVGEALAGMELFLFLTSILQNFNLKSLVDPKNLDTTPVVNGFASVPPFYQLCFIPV
smiles,measurement,setting,value
Cc1cc2nnc(SCC(=O)N3CCN(c4ccccc4)CC3)n2c(N)n1,AC50,Cytochrome P450 2C19,inconclusive
same,AC50,Cytochrome P450 2C9,25.1 µM (inconclusive)
O=c1c(-c2cccc(Cl)c2)c[nH]n1-c1ccccc1,IC50,[1],59.6 µM (active)
Cc1cc(C)c(OCCCCN(C)Cc2ccccc2)c(C)c1,IC50,[1],120 µM (active)
O=C(c1cc(C(F)(F)F)cc(C(F)(F)F)c1)N1CCC2(CCCN(Cc3nccs3)C2)CC1,AC50,Cytochrome P450 2C19,inconclusive
CCCCOc1ccc(CNC(=S)N/N=C/c2ccc(OC)c(OC)c2)cc1,CC50,[2],41.2 µM (active)
COc1ccc(/C=N/N2CCN(C)CC2)cc1O,IC50,[1],39.2 µM (active)
O=C(NCc1nnc(S)n1-c1ccccc1)c1ccc(S(=O)(=O)N2CCOCC2)cc1,AC50,Cytochrome P450 2C19; read-out: AC50,25.1 µM (inconclusive)
same,AC50,Cytochrome P450 3A4,31.6 µM (inconclusive)
same,AC50,Cytochrome P450 2C9,14.1 µM (inconclusive)
Cc1nc(N2CCN(S(=O)(=O)c3ccc(F)cc3)CC2)c2c(-c3cccs3)csc2n1,CC50,[2],16.8 µM (active)
C[C@H]1[C@@H](OC(=O)CCC(=O)O)O[C@@H]2OC3(C)CC[C@H]4[C@H](C)CC[C@@H]1[C@@]24OO3,EC50,[3],> 120 µM (not active)
same,EC50,[4],> 120 µM (not active)
same,EC50,[5],> 120 µM (not active)
O=C1N=C(N2CCOCC2)S/C1=C\c1ccccc1OS(=O)(=O)c1ccccc1,EC50,[3],14.8 µM (active)
same,EC50,[4],> 120 µM (not active)
same,EC50,[5],> 120 µM (not active)
NCCSc1nc(-c2ccccc2)c(-c2ccccc2)o1,AC50,Cytochrome P450 2C19; read-out: AC50,0.00794 µM (inconclusive)
same,AC50,Cytochrome P450 1A2,3.16 µM (inconclusive)
CCOc1ccc(S(=O)(=O)N2CCCCC2)cc1NC(=O)CN1CCCC1c1cccs1 (stereo unspecified),AC50,INS1,4.23 µM (active)
CCOC(=O)C(NC(=O)CC)(Nc1sc2c(c1C(=O)OC)CCN(C)C2)C(F)(F)F (stereo unspecified),AC50,Cytochrome P450 2C19; read-out: AC50,2.51 µM (inconclusive)
same,AC50,Cytochrome P450 2C9,15.8 µM (inconclusive)
same,AC50,Cytochrome P450 1A2,10 µM (inconclusive)
Cc1ccc([N+](=O)[O-])c(OCCN2CCCCCC2)c1,AC50,INS1,4.9 µM (active)
COCC(C)NCc1ccc(OC)c(Br)c1 (stereo unspecified),IC50,[1],167 µM (active)
CCOC(=O)c1ccc(NC(=S)N2CCSC2c2ccc(Cl)cc2)cc1 (stereo unspecified),EC50,[6],4.71 µM (active)
same,CC50,[2],16.9 µM (active)
COc1ncc2nc(-c3cn(C)c4ccccc34)c(=O)n(C)c2n1,AC50,Cytochrome P450 2C19,inconclusive
COc1cc(/C=N/n2c(S)nnc2-c2cc(C)[nH]n2)cc(OC)c1O,IC50,[1],69.3 µM (active)
CC/C(=N\CCc1c(C)[nH]c2ccccc12)C1=C(O)CC(c2ccccc2)CC1=O (stereo unspecified),EC50,[3],> 30 µM (not active)
same,EC50,[4],> 120 µM (not active)
same,EC50,[5],11.7 µM (active)
Cc1cc(/C=C2/SC(=S)N(c3cccc(C(F)(F)F)c3)C2=O)c(C)n1-c1cccnc1,EC50,[3],> 120 µM (not active)
same,EC50,[4],> 120 µM (not active)
same,EC50,[5],> 120 µM (not active)
COC(=O)[C@H]1C[C@@H]1[C@H](NC(=O)c1cc(C)nn1C)c1ccccc1,AC50,Cytochrome P450 2C19; read-out: AC50,15.8 µM (inconclusive)
Nc1ccc2c(c1)Nc1ccccc1CC2,IC50,[1],27.2 µM (active)
COc1ccc(F)cc1C(=O)C1CCCN(C(=O)c2ccccc2N(C)C)C1 (stereo unspecified),CC50,[2],28.1 µM (active)
COc1ccc(CN(C)CCc2ccccn2)c(OC)c1OC,IC50,[1],134 µM (active)
Nc1nc(N)c(/N=N\c2ccc(C(=O)O)c(O)c2)c(N)n1,AC50,Cytochrome P450 2C19; read-out: AC50,0.631 µM (inconclusive)
COc1cc(CNc2ccc3[nH]c(O)nc3c2)ccc1OCc1cccc(C)c1,IC50,[1],236 µM (active)
CNc1nc(Nc2ccc(C)c(Cl)c2)nc(N)c1[N+](=O)[O-],EC50,[7],82.2 µM (active)
O=C(CSc1ccc(Cl)cc1)Nc1ccc(N2CCN(C(=O)c3ccc(Cl)cc3)CC2)cc1,AC50,Cytochrome P450 2C19; read-out: AC50,14.1 µM (inconclusive)
CCN(CC)c1ccc(/C=N/N(c2ccccc2)c2ccccc2)c(O)c1,AC50,INS1,5.2 µM (active)
Nc1c(C(=O)Nc2ccccc2Cl)nnn1-c1ccc2c(c1)OCCO2,EC50,H4,> 120 µM (not active)
Cc1occc1C(=O)NNS(=O)(=O)c1ccc([N+](=O)[O-])cc1,EC50,[7],> 260 µM (inactive)
COc1ccc(CC(=O)Nc2cc3oc4ccccc4c3cc2OC)cc1,CC50,[2],> 50 µM (active)
Cc1cccn2c(=O)c3c(nc12)N1CCC(Cc2ccccc2)CC1C1(C3)C(=O)N(C)C(=O)N(C)C1=O (stereo unspecified),EC50,[7],> 260 µM (inactive)
Cc1c(Cl)cccc1NC(=O)CCC(=O)NNC(=O)c1ccco1,AC50,Cytochrome P450 2C19,inconclusive
O=C(c1cccs1)N1CCN(C(=O)C(c2ccccc2)c2ccccc2)CC1,AC50,Cytochrome P450 2C19; read-out: AC50,25.1 µM (inconclusive)
Cc1ccc(S(=O)(=O)n2c(=O)oc3ccccc32)cc1,EC50,[7],> 260 µM (inactive)
